Experimental data taken from patent US8871463B2, “Method for screening a glutamate release inhibitor in an astrocyte” (Korea Institute of Science and Technology, priority 2012, dated 2014).
Entries after “also recorded” stand apart in the source; their conditions may differ. Like-named read-outs stand apart in the source and are kept apart here.

Columns and labels:
astrocyte [1] = assay type: cell-based, mouse
astrocyte [2] = test: Fura-2 Ca2+ imaging of astrocyte during sniffer patch; assay type: cell-based, mouse; conditions: for TFLLR-induced astrocytic Ca2+ transient: TFLLR 500 μM, 100 ms
Protocol: On the day of sniffer-patch, cultured astrocytes (HEK cells added) were incubated with 5 μM Fura-2 AM (mixed with 5 μl of 20% Pluronic acid) (Invitrogen) for 40 min and washed at room temperature, and subsequently transferred to a microscope stage for imaging. External solution contained (in mM): 150 NaCl, 10 Hepes, 3 KCl, 2 CaCl2, 2 MgCl2, 5.5 glucose, pH adjusted to pH 7.3 and osmolarity to 325 mOsmol kg^−1. Intensity images of 510 nm wavelength were taken at 340 nm and 380 nm excitation wavelengths using either iXon EMCCD (DV887 DCS-BV, ANDOR technology). Two resulting images were used for ratio calculations in Axon Imaging Workbench version 6.2 (Axon Instruments). GluR1LY-mediated currents were recorded from HEK cells expressing GluR1L497Y under voltage clamp (Vh=−70 mV) using Multiclamp 700B amplifier (Molecular Devices), acquired with pClamp 9.2. Recording electrodes […] were filled with (mM): 110 Cs-Gluconate, 30 CsCl, 0.5 CaCl2, 10 Hepes, 4 Mg-ATP, 0.3 Na3-GTP and 10 BAPTA (pH adjusted to 7.3 with CsOH and osmolarity adjusted to 290-310 mOsm/kg with sucrose). For simultaneous recording, Imaging Workbench was synchronized with pClamp 9.2.

[3] = system: primary cultured astrocyte; assay type: cell-based, mouse
GluR1-L497Y = GluR1-L497Y (Homo sapiens, UniProt P42261, L497Y); assay type: cell-based
GluR1-L497Y, sequence (P42261 19-906 L497Y limits assumed): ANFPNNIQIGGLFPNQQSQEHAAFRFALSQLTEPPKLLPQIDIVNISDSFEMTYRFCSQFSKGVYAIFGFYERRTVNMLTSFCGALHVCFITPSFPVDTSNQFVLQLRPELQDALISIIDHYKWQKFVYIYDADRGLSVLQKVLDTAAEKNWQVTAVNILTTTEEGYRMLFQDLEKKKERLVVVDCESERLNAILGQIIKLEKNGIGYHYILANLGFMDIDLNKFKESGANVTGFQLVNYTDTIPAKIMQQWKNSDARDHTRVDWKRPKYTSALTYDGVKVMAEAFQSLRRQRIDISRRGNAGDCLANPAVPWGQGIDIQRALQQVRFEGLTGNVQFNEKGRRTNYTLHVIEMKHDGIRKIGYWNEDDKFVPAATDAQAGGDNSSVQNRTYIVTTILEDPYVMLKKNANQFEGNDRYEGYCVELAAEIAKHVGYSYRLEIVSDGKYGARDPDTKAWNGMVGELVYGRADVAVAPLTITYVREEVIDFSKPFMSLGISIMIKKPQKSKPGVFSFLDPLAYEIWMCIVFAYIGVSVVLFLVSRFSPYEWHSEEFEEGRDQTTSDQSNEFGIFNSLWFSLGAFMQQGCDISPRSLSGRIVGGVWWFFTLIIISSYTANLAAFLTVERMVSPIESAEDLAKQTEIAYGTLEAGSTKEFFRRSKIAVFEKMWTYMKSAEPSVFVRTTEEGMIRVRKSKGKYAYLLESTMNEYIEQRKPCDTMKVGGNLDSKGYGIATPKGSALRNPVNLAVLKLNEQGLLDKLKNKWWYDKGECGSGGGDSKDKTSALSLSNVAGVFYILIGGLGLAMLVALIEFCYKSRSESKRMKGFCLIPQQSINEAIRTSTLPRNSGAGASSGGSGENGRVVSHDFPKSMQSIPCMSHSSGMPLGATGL

## OC[C@H]1O[C@@H](n2cnc3c(NC4CCCC4)nc(Cl)nc32)[C@H](O)[C@@H]1O [CCPA, 2-chloro-N(6)-cyclopentyladenosine]
Astrocyte [1]
  fast-mode of glutamate release induced by the agent itself: induces mainly fast GluR1-mediated inward current; also recorded: activated a fast-mode; also recorded: induce fast-mode
  slow-mode of glutamate release induced by the agent itself: without a measurable Ca^2+ increase or a slow-mode
Astrocyte [2]; pressure-applied 100 ms
  astrocytic Ca2+ increase induced by the agent itself: does not induce; also recorded: without a measurable Ca^2+ increase

## CC[N+](CC)(CC)CC [TEA]
[3]
  fast and slow-modes of TFLLR-induced glutamate release (TFLLR-induced GluR1L497Y-mediated current): did not show any significant effect

## C=C[C@H]1C[N@@]2CC[C@H]1C[C@H]2[C@H](O)c1ccnc2ccc(OC)cc12 [quinine]
[3]
  fast and slow-modes of TFLLR-induced glutamate release (TFLLR-induced GluR1L497Y-mediated current): inhibit; also recorded: blocked

## NCC(CC(=O)O)c1ccc(Cl)cc1 (centres unmarked) [Baclofen]
Astrocyte [1]
  fast-mode of glutamate release induced by the agent itself: activated a fast-mode; also recorded: induces fast-mode
  slow-mode of glutamate release induced by the agent itself: without a measurable Ca^2+ increase or a slow-mode
Astrocyte [2]; pressure-applied 100 ms
  astrocytic Ca2+ increase induced by the agent itself: without a Ca^2+ transient
Astrocyte [2]; pressure-applied 100 ms, listed as baclofen
  astrocytic Ca2+ increase induced by the agent itself: without a measurable Ca^2+ increase

## TFLLR-NH2
[3]; n=31
  time from TFLLR to slow peak: 32.8 ± 2.6 s
Astrocyte [2]; n=31
  time from TFLLR to Ca2+ peak: 10.8 ± 0.7 s
GluR1-L497Y
  GluR1-mediated current induced in sensor HEK cell without astrocyte: does not induce

## [Cs+] [Cs^+]
[3]
  fast and slow-modes of TFLLR-induced glutamate release (TFLLR-induced GluR1L497Y-mediated current): did not show any significant effect

## CCCCC/C=C\C/C=C\C/C=C\C/C=C\CCCC(=O)NCCCl [ACEA, N-(2-Chloroethyl)-5Z,8Z,11Z,14Z-eicosatetraenamide]
Astrocyte [1]
  fast-mode of glutamate release induced by the agent itself: induces mainly fast-mode; also recorded: activated a fast-mode; also recorded: induce fast-mode
  slow-mode of glutamate release induced by the agent itself: without a measurable Ca^2+ increase or a slow-mode
Astrocyte [2]
  astrocytic Ca2+ increase induced by the agent itself: without a measurable Ca^2+ increase

## O=C(O)c1cc([N+](=O)[O-])ccc1NCCCc1ccccc1 [NPPB, 5-Nitro-2-(3-phenylpropylamino)benzoic Acid]
[3]
  fast and slow-modes of TFLLR-induced glutamate release (TFLLR-induced GluR1L497Y-mediated current): blocked

## CC(C)Cn1c(=O)n(C)c(=O)c2[nH]cnc21 [IBMX, 3-isobutyl-1-methylxanthine]
[3]
  fast-mode of TFLLR-induced glutamate release: does not affect

## O=S(=O)(O)c1cc(N=C=S)ccc1C=Cc1ccc(N=C=S)cc1S(=O)(=O)O [DIDS, 4,4′-Diisothiocyano-2,2′-stilbenedisulfonic acid]
[3]
  fast and slow-modes of TFLLR-induced glutamate release (TFLLR-induced GluR1L497Y-mediated current): inhibit; also recorded: blocked

## CC1(C)[C@@H](OC(=O)CCC(=O)O)CC[C@]2(C)[C@H]3C(=O)C=C4[C@@H]5C[C@@](C)(C(=O)O)CC[C@]5(C)CC[C@@]4(C)[C@]3(C)CC[C@@H]12 [CBX, Carbenoxolone]
[3]
  fast and slow-modes of TFLLR-induced glutamate release (TFLLR-induced GluR1L497Y-mediated current): does not inhibit; also recorded: did not show any significant effect

## N#Cc1cc2c(cc1[N+](=O)[O-])=NC(=O)C(=O)N=2 [CNQX, 6-cyano-7-nitroquinoxaline-2,3-dione]
[3]
  fast and slow-modes of TFLLR-induced glutamate release (TFLLR-induced GluR1L497Y-mediated current): blocked
  fast-mode of TFLLR-induced glutamate release: blocked
  slow-mode of TFLLR-induced glutamate release: blocked

## β-ARK-c term: C-terminus of Beta-adrenergic receptor kinase (SEQ ID NO: 5), over-expressed; inhibits Gβγ dissociation (WKKELRDAYREAQQLVQRVPKMKNKPRSVQRVPKMKNKPRS; B-Ark(Beta-adrenergic receptor kinase) C-terminus)
Astrocyte [2]
  TFLLR-induced astrocytic Ca2+ transient: do not inhibit
Astrocyte [2]; listed as […]-ARK
  TFLLR-induced astrocytic Ca2+ transient: without affecting

## [Ba+2] [Ba^2+]
[3]
  fast and slow-modes of TFLLR-induced glutamate release (TFLLR-induced GluR1L497Y-mediated current): did not show any significant effect

## C/C=C/[C@H]1O[C@@](O)([C@@H](C)[C@H](O)[C@H](C)[C@H]2OC(=O)/C(OC)=C/C(C)=C/[C@@H](C)[C@@H](O)[C@@H](CC)[C@@H](O)[C@H](C)C/C(C)=C/C=C/[C@@H]2OC)C[C@@H](O[C@H]2C[C@@H](O)[C@H](OC(N)=O)[C@@H](C)O2)[C@@H]1C [Concanamycin A]
[3]
  fast and slow-modes of TFLLR-induced glutamate release (TFLLR-induced GluR1L497Y-mediated current): appeared to block
GluR1-L497Y
  1 mM glutamate-induced GluR1L497Y-mediated current of sensor cell: reduced
  surface expression of GluR1-L497Y in the sensor cell: almost completely eliminated

## CC(=O)OCOC(=O)CN(CC(=O)OCOC(C)=O)c1ccccc1OCCOc1ccccc1N(CC(=O)OCOC(C)=O)CC(=O)OCOC(C)=O [BAPTA-AM, 1,2-bis-(o-inophenoxy)ethane-N,N,N′,N′-tetraacetic Acid Tetra-(acetoxymethyl) Ester]
[3]
  slow-mode of TFLLR-induced glutamate release: significantly reduced
Astrocyte [2]
  TFLLR-induced astrocytic Ca2+ transient: completely block; also recorded: eliminated

## O=C(O)c1cccnc1Nc1cccc(C(F)(F)F)c1 [NFA, Niflumic acid]
[3]
  fast and slow-modes of TFLLR-induced glutamate release (TFLLR-induced GluR1L497Y-mediated current): inhibit; also recorded: blocked
GluR1-L497Y
  1 mM glutamate-induced GluR1L497Y-mediated current of sensor cell: does not affect

## C-terminus of Phosducin: C-terminus of mouse phosducin (251-278 a.a., SEQ ID NO: 6), over-expressed; inhibits Gαi-Gβγ dissociation
[3]
  fast-mode of TFLLR-induced glutamate release: almost completely inhibited; also recorded: inhibition of the fast-mode
Astrocyte [2]
  TFLLR-induced astrocytic Ca2+ transient: without affecting
Astrocyte [2]; listed as Phosducin C-terminal fragment
  TFLLR-induced astrocytic Ca2+ transient: do not inhibit

## CCCCC1(C2CCCC2)Cc2cc(OCCCC(=O)O)c(Cl)c(Cl)c2C1=O (centres unmarked) [DCPIB, 4-(2-butyl-6,7-dichloro-2-cyclopentylindan-1-on-5-yl)oxybutyric acid]
[3]
  fast and slow-modes of TFLLR-induced glutamate release (TFLLR-induced GluR1L497Y-mediated current): did not show any significant effect

B1: RGS-2: Regulatory G protein signaling 2, over-expressed; selectively inhibits the Gq subunit (protein, UniProt P41220 1-211, looked up)
Regulator of G-protein …: MQSAMFLAVQHDCRPMDKSAGSGHKSEEKREKMKRTLLKDWKTRLSYFLQNSSTPGKPKTGKKSKQQAFIKPSPEEAQLWSEAFDELLASKYGLAAFRAFLKSEFCEENIEFWLACEDFKKTKSPQKLSSKARKIYTDFIEKEAPKEINIDFQTKTLIAQNIQEATSGCFTTAQKRVYSLMENNSYPRFLESEFYQDLCKKPQITTEPHAT
Astrocyte [2]
  TFLLR-induced astrocytic Ca2+ transient: greatly and significantly reduced; also recorded: selectively and significantly inhibited
